We go through 8 molecules from patent US5212170A, “Psychotropic piperidinylmethyl benzodioxans” (American Home Products Corporation, priority 1992, dated 1993).

One test has as its system 5-HT1A receptor site. To be noted: cited from earlier work.
For test [1], the target named is T1, serotonin 5-HT1A receptor (Rattus norvegicus, UniProt P19327).
T1 construct: following the procedure of Hall et al., J. Neurochem; 44, 1685 (1985); from tissue
T1 sequence (P19327 1-422): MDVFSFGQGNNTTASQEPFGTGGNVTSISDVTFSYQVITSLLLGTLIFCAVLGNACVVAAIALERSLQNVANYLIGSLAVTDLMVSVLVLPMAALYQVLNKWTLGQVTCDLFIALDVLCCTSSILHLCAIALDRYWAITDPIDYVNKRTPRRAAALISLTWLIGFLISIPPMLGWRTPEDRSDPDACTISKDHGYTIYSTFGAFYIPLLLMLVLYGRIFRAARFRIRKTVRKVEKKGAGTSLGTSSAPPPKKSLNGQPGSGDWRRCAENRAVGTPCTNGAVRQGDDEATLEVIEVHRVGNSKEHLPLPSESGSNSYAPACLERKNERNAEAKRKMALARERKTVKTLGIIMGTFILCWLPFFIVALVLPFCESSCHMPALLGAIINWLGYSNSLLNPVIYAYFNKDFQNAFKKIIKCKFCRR
Description: 5-HT1A Binding (displacement of [3H] 8-OHDPAT). The text has this:
High affinity for the serotonin 5-HT1A receptor was established by testing the claimed compound's ability to displace [^3 H] 8-OHDPAT (dipropylaminotetralin) from the 5-HT1A serotonin receptor following the procedure of Hall et al., J. Neurochem. 44, 1685 (1985). […] The anxiolytic activity of buspirone is believed to be, at least partially, due to its 5-HT1A receptor affinity (Vander Maclen et al., Eur. J. Pharmacol. 1986, 129 (1-2) 133-130).
A general note: Loss of bound radioactivity is the signal in a displacement assay; it reports binding, not function.

A further test has as its target T2, dopamine D-2 receptor (Rattus norvegicus, UniProt P61169).
T2 construct: from tissue; host or cells: homogenized limbic brain tissue
Description: D-2 Binding (3H-spiroperidol, homogenized limbic brain tissue). As for the experimental part:
High affinity for the dopamine D-2 receptor was established by the standard experimental test procedure of Fields, et al., Brain Res., 136, 578 (1977) and Yamamura et al., eds., Neurotransmitter Receptor Binding, Raven Press, N.Y. (1978) wherein homogenized limbic brain tissue is incubated with ^3 H-spiroperidol and various concentrations of test compound, filtered and washed and shaken with Hydrofluor scintillation cocktail (National Diagnostics) and counted in a Packard 460 CD scintillation counter.

For test [2], the system named is 5-HT1A serotonin receptor subtype. Conditions: standard for anxiolytic activity; cited from earlier work.

Each structure is given as a SMILES string.

T2 sequence (P61169 whole entry): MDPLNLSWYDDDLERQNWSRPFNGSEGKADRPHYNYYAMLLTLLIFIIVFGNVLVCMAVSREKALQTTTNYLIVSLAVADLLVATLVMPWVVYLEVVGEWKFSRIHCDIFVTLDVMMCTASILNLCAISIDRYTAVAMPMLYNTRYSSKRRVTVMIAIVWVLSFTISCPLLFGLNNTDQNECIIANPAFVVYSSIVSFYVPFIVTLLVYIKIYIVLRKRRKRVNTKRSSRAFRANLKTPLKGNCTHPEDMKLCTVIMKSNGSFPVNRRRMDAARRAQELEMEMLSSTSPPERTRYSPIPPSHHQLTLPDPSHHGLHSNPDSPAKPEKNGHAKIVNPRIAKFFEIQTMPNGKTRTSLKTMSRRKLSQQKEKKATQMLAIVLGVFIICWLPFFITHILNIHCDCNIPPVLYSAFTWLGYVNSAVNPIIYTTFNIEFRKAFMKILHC

As to `O=C1CC2(CCCC2)CC(=O)N1CCCCNCC1COc2ccccc2O1` (single isomer, unassigned; (-)) [(-)-MDL 72832], the “binding at the 5-HT1A receptor site relative to the dextrorotary isomer” value in the test on 5-HT1A receptor site ((-)-isomer vs dextrorotary isomer) is on record as 32 times. The term IC50 denotes the concentration needed to halve the response being measured. The low end stands for higher potency, the high end for lower potency. As usually defined, the inhibition is the relative decrease from the control value, in per cent. Higher therefore signals strong suppression. As for `O=C(NC1CCN(CC2COc3ccccc3O2)CC1)C12CC3CC(CC(C3)C1)C2` (stereo not drawn) [Example 1, N-[1-[(2,3-Dihydro-1,4-benzodioxin-2-yl)methyl]-4-piperidinyl]tricyclo[3.3.1.1^3,7]decane-1-carboxamide], in test [1], the IC50 came out at 0.107 µM and the inhibition at 0.1 µM was 59%. 1 µM produced 29% inhibition on dopamine D-2 receptor. In test [1], `O=C1C2C3C=CC(C4C=CC43)C2C(=O)N1C1CCN(CC2COc3ccccc3O2)CC1` (stereo not drawn) [Example 2, 3a, 4,4a, 6a, 7,7a-Hexahydro-2-[1-[(2,3-Dihydro-1,4-benzodioxin-2-yl)methyl]-4-piperidinyl]-4,7-etheno-1H-cyclobut[f]isoindole-1,3(2H)-dione] had an inhibition at 0.1 µM of 4%. In test [1], `O=C1c2ccccc2S(=O)(=O)N1C1CCN(CC2COc3ccccc3O2)CC1` (stereo not drawn) [Example 3, 2-[1-[(2,3-Dihydro-1,4-benzodioxin-2-yl)methyl]-4-piperidinyl]-1,2-benzoisothiazol-3(2H)-one 1,1-dioxide] displayed an inhibition at 0.1 µM of 45%. As to `O=C1C2CC(C(=O)N1CC1CCN(CC3COc4ccccc4O3)CC1)C1C2C2C3CC4C2C4C31` (stereo not drawn) [Example 4, 3-[[1-[(2,3-Dihydro-1,4-benzodioxin-2-yl)methyl]-4-piperidinyl]methyl]decahydro-2H-1,5-methano-6,7,9-methenopentaleno[1,2-d]azepine-2,4(3H)-dione], the inhibition at 0.1 µM in test [1] came out at 96%. The molecule further had an inhibition at 1 µM on dopamine D-2 receptor of 97%. On to `O=C(NCC1CCN(CC2COc3ccccc3O2)CC1)C12CC3CC(CC(C3)C1)C2` (stereo not drawn) [Example 5, N-[[1-[(2,3-Dihydro-1,4-benzodioxin-2-yl)methyl]-4-piperidinyl]methyl]tricyclo[3.3.1.1^3,7]decane-1-carboxamide], for which, in test [1], at 0.1 µM the inhibition was 92%. For the same molecule, the inhibition at 1 µM on dopamine D-2 receptor was determined as 52%. For `O=C1CC2(CCCC2)CC(=O)N1CCCCNCC1COc2ccccc2O1` (stereo not drawn) [MDL 72832, 8-[4-(1,4-benzodioxan-2-ylmethylamino)butyl]-8-azaspiro[4.5]decane-7,9-dione], the “ligand selectivity for 5-HT1A receptors” value in the test with 5-HT1A receptor site (Fozard et al. 1987) was “selective and stereospecific”. Regarding `O=C1CC2(CCCC2)CC(=O)N1CCCCN1CCN(c2ncccn2)CC1` [buspirone], the “affinity for the 5-HT1A serotonin receptor subtype” value in test [2] was “potent affinity”.
